From ChEMBL document CHEMBL1944566, “Conjugation of cell-penetrating peptides leads to identification of anti-HIV peptides from matrix proteins” (Bioorg Med Chem, 2012)
Activity calls are given as the source filed them. The rule behind the calls is not given here. Where a SMILES comes first, the peptide text is derived from it. The star is where a group is joined. Cam = NC(=O)C*

Key:
[1] = system: Human immunodeficiency virus 1; experiment: Antiviral activity against X4 tropic HIV1 NL4-3 in MT4 cells assessed as protection from virus-induced cytopathogenicity at 25 uM after 5 days by MTT assay; type: functional, organism-based
[2] = Cytotoxicity against human MT4 cells after 5 days by MTT assay; type: cell-based
[3] = system: Human immunodeficiency virus 1; experiment: Antiviral activity against X4 tropic HIV1 NL4-3 in MT4 cells assessed as protection from virus-induced cytopathogenicity after 5 days by MTT assay; type: functional, organism-based; conditions: Human immunodeficiency virus 1, NL4-3, MT4, 120 h
[4] = system: Human immunodeficiency virus 1; experiment: Antiviral activity against R5 tropic HIV1 NL(AD8) in PM1/CCR5 cells assessed as protection from virus-induced cytopathogenicity after 5 days by MTT assay; type: functional, organism-based; conditions: Human immunodeficiency virus 1, NL(AD8), PM1/CCR5, 120 h
[5] = system: Human immunodeficiency virus 1; experiment: Antiviral activity against R5 tropic HIV1 JR-CSF in PM1/CCR5 cells assessed as protection from virus-induced cytopathogenicity measuring capsid p24 level after 5 days by ELISA; type: functional, cell-based; conditions: Human immunodeficiency virus 1, JRCSF ISOLATE, PM1/CCR5, 120 h
[6] = Aqueous solubility of the compound; type: physicochemical; conditions: buffer
[7] = Solubility in PBS buffer; type: physicochemical
[8] = system: Human immunodeficiency virus 1; experiment: Antiviral activity against R5 tropic HIV1 NL(AD8) in PM1/CCR5 cells assessed as protection from virus-induced cytopathogenicity at 50 uM after 5 days by MTT assay; type: functional; conditions: Human immunodeficiency virus 1, NL(AD8), PM1/CCR5, 120 h
[9] = system: Human immunodeficiency virus 1; experiment: Antiviral activity against R5 tropic HIV1 JR-CSF in PM1/CCR5 cells assessed as protection from virus-induced cytopathogenicity measuring capsid p24 level at 50 uM after 5 days by ELISA; type: functional; conditions: Human immunodeficiency virus 1, JRCSF ISOLATE, PM1/CCR5, 120 h
[10] = system: Human immunodeficiency virus 1; experiment: Antiviral activity against X4 tropic HIV1 NL4-3 in MT4 cells assessed as protection from virus-induced cytopathogenicity at 3.13 uM after 5 days by MTT assay; type: functional, organism-based
[11] = system: Human immunodeficiency virus 1; experiment: Antiviral activity against X4 tropic HIV1 NL4-3 in MT4 cells assessed as protection from virus-induced cytopathogenicity at 12.5 uM after 5 days by MTT assay; type: functional, organism-based
[12] = system: Human immunodeficiency virus 1; experiment: Antiviral activity against R5 tropic HIV1 NL(AD8) in PM1/CCR5 cells assessed as protection from virus-induced cytopathogenicity at 25 uM after 5 days by MTT assay; type: functional; conditions: Human immunodeficiency virus 1, NL(AD8), PM1/CCR5, 120 h

Row | Compound | CC50 at 120 h [2] | EC50 [3] | EC50 [5] | further results
1 | CC[C@H](C)[C@H](NC(=O)[C@H](Cc1cnc[nH]1)NC(=O)[C@H](CCCCN)NC(=O)[C@H](CC(C)C)NC(=O)[C@H](CCCCN)NC(=O)[C@H](Cc1ccc(O)cc1)NC(=O)[C@H](CCC(N)=O)NC(=O)[C@H](CCC(=O)O)NC(=O)[C@H](Cc1c[nH]c2ccccc12)NC(=O)[C@H](CCCCN)NC(=O)[C@H](CC(=O)O)NC(=O)[C@H](CC(C)C)NC(=O)[C@H](CCC(=O)O)NC(=O)CNC(C)=O)C(=O)N[C@H](C(=O)NCC(=O)N[C@@H](CSCC(=O)N[C@@H](CCCNC(=N)N)C(=O)N[C@@H](CCCNC(=N)N)C(=O)N[C@@H](CCCNC(=N)N)C(=O)N[C@@H](CCCNC(=N)N)C(=O)N[C@@H](CCCNC(=N)N)C(=O)N[C@@H](CCCNC(=N)N)C(=O)N[C@@H](CCCNC(=N)N)C(=O)N[C@@H](CCCNC(=N)N)C(N)=O)C(N)=O)C(C)C | 36 µM |  |  | inhibition [1]: inactive
2 | CC[C@H](C)[C@H](NC(=O)[C@H](Cc1cnc[nH]1)NC(=O)[C@H](CCCCN)NC(=O)[C@H](CC(C)C)NC(=O)[C@H](CCCCN)NC(=O)[C@H](Cc1ccc(O)cc1)NC(=O)[C@H](CCC(N)=O)NC(=O)[C@H](CCCCN)NC(=O)[C@H](CCCCN)NC(=O)CNC(=O)CNC(=O)[C@@H]1CCCN1C(=O)[C@H](CCCNC(=N)N)NC(=O)[C@H](CC(C)C)NC(C)=O)C(=O)N[C@H](C(=O)NCC(=O)N[C@@H](CSCC(=O)N[C@@H](CCCNC(=N)N)C(=O)N[C@@H](CCCNC(=N)N)C(=O)N[C@@H](CCCNC(=N)N)C(=O)N[C@@H](CCCNC(=N)N)C(=O)N[C@@H](CCCNC(=N)N)C(=O)N[C@@H](CCCNC(=N)N)C(=O)N[C@@H](CCCNC(=N)N)C(=O)N[C@@H](CCCNC(=N)N)C(N)=O)C(N)=O)C(C)C | 36 µM |  |  | inhibition [1]: inactive
3 | CC[C@H](C)[C@H](NC(=O)[C@H](CCCNC(=N)N)NC(=O)[C@H](CCC(N)=O)NC(=O)[C@H](Cc1cnc[nH]1)NC(=O)[C@@H](NC(=O)[C@H](CO)NC(=O)[C@H](Cc1ccc(O)cc1)NC(=O)[C@H](CC(C)C)NC(=O)[C@@H](NC(=O)[C@H](C)NC(=O)[C@@H](NC(=O)[C@@H](NC(C)=O)[C@@H](C)O)[C@@H](C)CC)C(C)C)C(C)C)C(=O)N[C@@H](CC(=O)O)C(=O)N[C@H](C(=O)N[C@@H](CCCCN)C(=O)NCC(=O)N[C@@H](CSCC(N)=O)C(N)=O)C(C)C (Ac-TIAVLYSVHQRIDVKGC(Cam)-NH2) | > 50 µM | 29 µM | 8.1 µM | EC50 [4]: 13 µM; solubility [6]: Insoluble
4 | CC[C@H](C)[C@H](NC(=O)[C@@H](NC(=O)[C@H](CC(N)=O)NC(=O)[C@H](Cc1ccc(O)cc1)NC(=O)[C@H](CC(C)C)NC(=O)[C@H](CO)NC(=O)[C@H](CCCNC(=N)N)NC(=O)[C@H](CC(C)C)NC(=O)[C@H](CCC(=O)O)NC(=O)[C@H](CCC(=O)O)NC(=O)[C@H](CO)NC(=O)CNC(C)=O)[C@@H](C)O)C(=O)N[C@@H](C)C(=O)N[C@H](C(=O)N[C@@H](CC(C)C)C(=O)NCC(=O)N[C@@H](CSCC(=O)N[C@@H](CCCNC(=N)N)C(=O)N[C@@H](CCCNC(=N)N)C(=O)N[C@@H](CCCNC(=N)N)C(=O)N[C@@H](CCCNC(=N)N)C(=O)N[C@@H](CCCNC(=N)N)C(=O)N[C@@H](CCCNC(=N)N)C(=O)N[C@@H](CCCNC(=N)N)C(=O)N[C@@H](CCCNC(=N)N)C(N)=O)C(N)=O)C(C)C | 9 µM | 2.3 µM | 7.8 µM | EC50 [4]: 5.8 µM; solubility [7]: soluble
5 | CC[C@H](C)[C@H](NC(=O)[C@@H](NC(=O)[C@H](CC(N)=O)NC(=O)[C@H](Cc1ccc(O)cc1)NC(=O)[C@H](CC(C)C)NC(=O)[C@H](CO)NC(=O)[C@H](CCCNC(=N)N)NC(=O)[C@H](CC(C)C)NC(=O)[C@H](CCC(=O)O)NC(=O)[C@H](CCC(=O)O)NC(=O)[C@H](CO)NC(=O)CNC(C)=O)[C@@H](C)O)C(=O)N[C@@H](C)C(=O)N[C@H](C(=O)N[C@@H](CC(C)C)C(=O)NCC(=O)N[C@@H](CSCC(N)=O)C(N)=O)C(C)C | > 50 µM | > 50 µM |  | solubility [6]: Insoluble
6 | CC(=O)N[C@@H](CC(C)C)C(=O)NCC(=O)N[C@@H](CCC(N)=O)C(=O)N[C@@H](CC(C)C)C(=O)N[C@@H](CCC(N)=O)C(=O)N1CCC[C@H]1C(=O)N[C@@H](CO)C(=O)N[C@@H](CC(C)C)C(=O)N[C@@H](CCC(N)=O)C(=O)N[C@H](C(=O)NCC(=O)N[C@@H](CO)C(=O)N[C@@H](CCC(=O)O)C(=O)N[C@@H](CCC(=O)O)C(=O)N[C@@H](CC(C)C)C(=O)NCC(=O)N[C@@H](CSCC(=O)N[C@@H](CCCNC(=N)N)C(=O)N[C@@H](CCCNC(=N)N)C(=O)N[C@@H](CCCNC(=N)N)C(=O)N[C@@H](CCCNC(=N)N)C(=O)N[C@@H](CCCNC(=N)N)C(=O)N[C@@H](CCCNC(=N)N)C(=O)N[C@@H](CCCNC(=N)N)C(=O)N[C@@H](CCCNC(=N)N)C(N)=O)C(N)=O)[C@@H](C)O | > 50 µM | 35 µM |  | inhibition at 50 µM [8]: 37%; inhibition at 50 µM [9]: 35%
7 | CC[C@H](C)[C@H](NC(=O)[C@H](Cc1cnc[nH]1)NC(=O)[C@H](CCCCN)NC(=O)[C@H](CC(C)C)NC(C)=O)C(=O)N[C@H](C(=O)N[C@@H](Cc1c[nH]c2ccccc12)C(=O)N[C@@H](C)C(=O)N[C@@H](CO)C(=O)N[C@@H](CCCNC(=N)N)C(=O)N[C@@H](CCC(=O)O)C(=O)N[C@@H](CC(C)C)C(=O)N[C@@H](CCC(=O)O)C(=O)N[C@@H](CCCNC(=N)N)C(=O)N[C@@H](Cc1ccccc1)C(=O)N[C@@H](C)C(=O)NCC(=O)N[C@@H](CSCC(=O)N[C@@H](CCCNC(=N)N)C(=O)N[C@@H](CCCNC(=N)N)C(=O)N[C@@H](CCCNC(=N)N)C(=O)N[C@@H](CCCNC(=N)N)C(=O)N[C@@H](CCCNC(=N)N)C(=O)N[C@@H](CCCNC(=N)N)C(=O)N[C@@H](CCCNC(=N)N)C(=O)N[C@@H](CCCNC(=N)N)C(N)=O)C(N)=O)C(C)C | 3.7 µM |  |  | inhibition [10]: inactive
8 | CC[C@H](C)[C@H](NC(=O)[C@H](CCCCN)NC(=O)[C@H](CC(=O)O)NC(=O)[C@H](CC(C)C)NC(=O)[C@H](C)NC(=O)[C@H](CCC(=O)O)NC(=O)[C@H](CCCCN)NC(=O)[C@@H](NC(=O)[C@H](CC(=O)O)NC(=O)[C@H](CCCCN)NC(=O)[C@@H](NC(=O)[C@H](CC(=O)O)NC(=O)[C@@H](NC(=O)[C@H](CCCNC(=N)N)NC(C)=O)[C@@H](C)CC)C(C)C)[C@@H](C)O)C(=O)N[C@@H](CCC(=O)O)C(=O)NCC(=O)N[C@@H](CSCC(N)=O)C(N)=O | 17 µM |  |  | inhibition [11]: inactive
9 | CC(=O)N[C@@H](CO)C(=O)N[C@@H](CCCCN)C(=O)N[C@@H](CCCCN)C(=O)N[C@@H](CCCCN)C(=O)N[C@@H](C)C(=O)N[C@@H](CCC(N)=O)C(=O)N[C@@H](CCC(N)=O)C(=O)N[C@@H](C)C(=O)N[C@@H](C)C(=O)N[C@@H](C)C(=O)N[C@@H](CC(=O)O)C(=O)N[C@H](C(=O)NCC(=O)N[C@@H](CC(N)=O)C(=O)N[C@@H](CC(N)=O)C(=O)NCC(=O)N[C@@H](CSCC(=O)N[C@@H](CCCNC(=N)N)C(=O)N[C@@H](CCCNC(=N)N)C(=O)N[C@@H](CCCNC(=N)N)C(=O)N[C@@H](CCCNC(=N)N)C(=O)N[C@@H](CCCNC(=N)N)C(=O)N[C@@H](CCCNC(=N)N)C(=O)N[C@@H](CCCNC(=N)N)C(=O)N[C@@H](CCCNC(=N)N)C(N)=O)C(N)=O)[C@@H](C)O | > 50 µM | 41 µM | 27 µM | inhibition at 25 µM [12]: 30%
10 | CC[C@H](C)[C@H](NC(=O)[C@H](CCCCN)NC(=O)[C@H](CC(=O)O)NC(=O)[C@H](CC(C)C)NC(C)=O)C(=O)N[C@@H](CCC(=O)O)C(=O)N[C@@H](CCC(=O)O)C(=O)N[C@@H](CCC(=O)O)C(=O)N[C@@H](CCC(N)=O)C(=O)N[C@@H](CC(N)=O)C(=O)N[C@@H](CCCCN)C(=O)N[C@@H](CO)C(=O)N[C@@H](CCCCN)C(=O)N[C@@H](CCCCN)C(=O)N[C@@H](CCCCN)C(=O)N[C@@H](C)C(=O)NCC(=O)N[C@@H](CSCC(=O)N[C@@H](CCCNC(=N)N)C(=O)N[C@@H](CCCNC(=N)N)C(=O)N[C@@H](CCCNC(=N)N)C(=O)N[C@@H](CCCNC(=N)N)C(=O)N[C@@H](CCCNC(=N)N)C(=O)N[C@@H](CCCNC(=N)N)C(=O)N[C@@H](CCCNC(=N)N)C(=O)N[C@@H](CCCNC(=N)N)C(N)=O)C(N)=O | > 50 µM | 18 µM | 23 µM | inhibition at 25 µM [12]: 17%
11 | CC[C@H](C)[C@H](NC(=O)[C@H](Cc1cnc[nH]1)NC(=O)[C@H](CCCCN)NC(=O)[C@H](CC(C)C)NC(C)=O)C(=O)N[C@H](C(=O)N[C@@H](Cc1c[nH]c2ccccc12)C(=O)N[C@@H](C)C(=O)N[C@@H](CO)C(=O)N[C@@H](CCCNC(=N)N)C(=O)N[C@@H](CCC(=O)O)C(=O)N[C@@H](CC(C)C)C(=O)N[C@@H](CCC(=O)O)C(=O)N[C@@H](CCCNC(=N)N)C(=O)N[C@@H](Cc1ccccc1)C(=O)N[C@@H](C)C(=O)NCC(=O)N[C@@H](CSCC(N)=O)C(N)=O)C(C)C (Ac-LKHIVWASRELERFAGC(Cam)-NH2) | 14 µM |  |  | inhibition [11]: inactive
